What was measured:
[1] = Equilibrium adsorption isotherms of BPA on inactivated sludge (Freundlich, Langmuir); assay type: physicochemical
Experimental: To elucidate the plausible mechanisms of the biological removal of the bisphenol compounds, the removal of BPA was tested (adsorption on the biomass versus biological oxidation), and additional experiments are carried out in Erlenmeyer shake flasks containing either activated sludge or inactivated sludge in the presence of BPA. The sludge used for the tests is withdrawn from the SMBR unit. Prior to BPA addition in activated sludge sample, sludge is initially centrifuged at 8000 rpm at 4° C. for 10 min and softly washed. The inactivated sludge is prepared by subjecting sludge samples to a sterilization by adding 1.0 mL HgSO4 (20 g/L) to 200 mL of sludge. Then, the sterilized and centrifuged sample sludge is placed in conical flasks and shaken at 150 rpm at 22±2° C. for 2 h, and then centrifuged at 8000 rpm at 4° C. for 10 min. Different concentrations of BPA (0.45 to 18.2 mg/L) are added in the same mass of sludge (3.0 g of sludge diluted to 200 mL with milli-Q water). The concentration of total suspended solid (sludge) in the flask was 15 g TSS L^−1, which is similar to that observed in the SMBR system of the present invention. Three types of experiments are successively carried out. The first set tests consists in evaluating the adsorption capacity of BPA on sludge. For that, two Erlenmeyer shake flasks containing 200 mL of activated sludge (15 g TSS L^−1) are respectively contaminated by 5 and 10 mg/L of BPA. The flasks are shaken at 150 rpm at 22±2° C., pH=7±0.5 for 24 h and samples are taken in regular time intervals, and the amount of BPA adsorbed is determined by measuring the residual BPA concentrations in solution The same assay is carried out using inactivated sludge. Subsequently, isotherm adsorption experiments are carried out using different concentrations of BPA (0.45-18.2 mg/L) spiked in a same mass of sludge (200 ml of inactivated sludge at 15 g TSS/L). The flasks are shaken at 150 rpm for 2 h and samples are taken for analysis.
By analogy, the amount of BPA adsorbed on sludge at equilibrium (qe, mg/g) and the sorption efficiency is determined according to equations (1) described above. The specific adsorption coefficient (KD) can also be calculated. The coefficient KD is the ratio between the amount of BPA adsorbed on sludge at equilibrium (qe) and the residual (Ce) concentrations, according to the following equation (Eq. (3)): […]
Thermodynamic equilibrium constants are determined in order to evaluate adsorption affinity of BPA on sludge. The amount of BPA adsorbed on sludge is calculated using the following equation (Eq. (10)): […]
Adsorption isotherms allow presenting the variation of sorption with respect to the concentration of sorbate in the bulk solution at constant temperature. Equilibrium adsorptions of BPA on the biomass using Freundlich and Langmuir models are studied. These isotherms describe BPA uptake per unit weight of sorbent (qe) in function of the equilibrium sorbate concentration in the bulk solution (Ce). The Freundlich isotherm is described by the following equation (Eq. (11)) and is illustrated in FIG. 12: […]
The Langmuir isotherm is described by the following equation (Eq. (12)) and is represented in FIG. 13: […]
In fact, Langmuir adsorption isotherm is valid for monolayer sorption on a surface containing a limited number of sites, predicting a homogenous distribution of sorption energy. The reorganization of Eq. (12) leads to the following equation (Eq. (13)) as the linearised form of the Langmuir isotherm: […]
From Langmuir isotherm, it is possible to define a dimensionless constant (RL) taking into account the separation factor of equilibrium parameter. This dimensionless constant allows predicting if the adsorption system is favorable or not, as explained in Shokoohi et al. as cited above and by Gao et al. Journal of Fluorine Chemistry 130 (2009) 1035-1041. RL can be evaluated using the following equation (Eq. (14)): […]

[2] = Thermodynamic parameters of BPA adsorption on inactivated sludge; assay type: physicochemical
Experimental: The third set of assays consisted of evaluating the thermodynamic parameters such as Gibbs free energy)(ΔG^0), enthalpy)(ΔH^0 and entropy)(ΔS^0 changes, which parameters allowed to determine whether BPA sorption on sludge was due to physisorption or chemisorption phenomenon or the combination of both phenomena. For that, Erlenmeyer flasks containing 200 mL of inactivated sludge at 15 g TSS L^−1 and 5 mgL^−1 of BPA are used. Mixing is achieved at 150 rpm and different temperatures (22±2, 30±2 and 40±2° C.) are respectively imposed for 2 h of experiment time.
In order to calculate whether the adsorption process is spontaneous or not, thermodynamics parameters including standard Gibbs free energy of adsorption (ΔadG^0), standard enthalpy of adsorption (ΔadH^0) and standard entropy change of) adsorption (ΔadS^0) have been considered. ΔadG^0 is calculated using the following equation (Eq. (22)): ΔadG^0=−RT ln Kd (22)
T is the temperature (K), and KD is the specific adsorption coefficient (equilibrium distribution coefficient). Relation between ΔadG^0, ΔH^0 and ΔadS^0 is expressed by the following equation (Eq. (23)): ΔadG^0=ΔadH^0−TΔadS^0 (23)
wherein ΔadH^0, ΔadS^0 are calculated from the slope and intercept of the plot of ln KD versus 1/T, respectively.
The adsorption tests are conducted at different temperatures ranging from 293 K to 313 K. At each temperature, the corresponding KD at fixed initial concentration of BPA is calculated and the corresponding Gibbs free energy change is deducted according to Eq. (22).

With `CC(C)(c1ccc(O)cc1)c1ccc(O)cc1` [BPA, 2,2-Bis(4-hydroxyphenyl)propane] the “Freundlich parameter shown as formula MATH:00015” value [1] was 0.819, the “KL (Langmuir constant)” value [1] was 0.370 L/g and the “RL (dimensionless separation factor, Langmuir)” value [1] was 0.11. The “b (Langmuir constant)” value [1] was 0.444 L/mg, the “kf (Freundlich isotherm constant)” value [1] was 0.231 mg^1-1/n g^−1 · L^1/n and the “n (Freundlich constant, adsorption intensity)” value [1] was 1.22. For the same compound, the “qm, maximum BPA concentration capable of being adsorbed on sludge (Langmuir, KL/b)” value [1] was 0.833 mg/g, the Adsorbed fraction ([1]; C0 0.45 mg/L) was 84.4% and the “Equilibrium liquid phase concentration of BPA (Ce)” value ([1]; C0 0.45 mg/L) was 0.07 mg/L. For the same compound, the Adsorbed fraction ([1]; C0 0.91 mg/L) was 85.7%, the “Equilibrium liquid phase concentration of BPA (Ce)” value ([1]; C0 0.91 mg/L) was 0.13 mg/L and the Adsorbed fraction ([1]; C0 1.82 mg/L) was 78.6%. For the same compound, the “Equilibrium liquid phase concentration of BPA (Ce)” value ([1]; C0 1.82 mg/L) was 0.39 mg/L, the Adsorbed fraction ([1]; C0 4.74 mg/L) was 77.0% and the “Equilibrium liquid phase concentration of BPA (Ce)” value ([1]; C0 4.74 mg/L) was 1.09 mg/L. The Adsorbed fraction ([1]; C0 9.47 mg/L) was 76.0%, the “Equilibrium liquid phase concentration of BPA (Ce)” value ([1]; C0 9.47 mg/L) was 2.27 mg/L and the Adsorbed fraction ([1]; C0 13.67 mg/L) was 74.8%. For the same compound, the “Equilibrium liquid phase concentration of BPA (Ce)” value ([1]; C0 13.67 mg/L) was 3.45 mg/L, the Adsorbed fraction ([1]; C0 18.22 mg/L) was 70.5% and the “Equilibrium liquid phase concentration of BPA (Ce)” value ([1]; C0 18.22 mg/L) was 5.37 mg/L. The “Adsorption removal of BPA on sludge” value ([1]; of initial liquid phase concentration, 0.45-18.2 mg/L) was 70.5 to 85.7%, the “ΔadH^0” value ([2]; 293-313 K) was −82.121 KJmol^−1 and the “ΔadS^0” value ([2]; 293-313 K) was −0.257 KJmol^−1K^−1. For the same compound, the “ΔadG^0” value ([2]; 293 K) was -7.197 kJ/mol, the “ΔadG^0” value ([2]; 303 K) was -3.019 kJ/mol and the “ΔadG^0” value ([2]; 313 K) was -2.120 kJ/mol.
